Measured values published in patent publication US7491827B2, “Aryl sulfonamides useful as inhibitors of chemokine receptor activity” (Millennium Pharmaceuticals, Inc., priority 2003, dated 2009).

target: T1, cloned human CCR8 receptor stably expressed in L1.2 cells (Homo sapiens, UniProt P51685); experiment: whole cell binding screen: inhibition of biotinylated human I309 binding to CCR8 (FMAT 8100 HTS); details: Ki of compounds to inhibit I-309 binding to CCR8, L1.2/hCCR8 cells, biotinylated human I-309, 10 point concentration response starting at 10 μM
T1 construct: expressed in transfected cells
T1 sequence (P51685 whole entry): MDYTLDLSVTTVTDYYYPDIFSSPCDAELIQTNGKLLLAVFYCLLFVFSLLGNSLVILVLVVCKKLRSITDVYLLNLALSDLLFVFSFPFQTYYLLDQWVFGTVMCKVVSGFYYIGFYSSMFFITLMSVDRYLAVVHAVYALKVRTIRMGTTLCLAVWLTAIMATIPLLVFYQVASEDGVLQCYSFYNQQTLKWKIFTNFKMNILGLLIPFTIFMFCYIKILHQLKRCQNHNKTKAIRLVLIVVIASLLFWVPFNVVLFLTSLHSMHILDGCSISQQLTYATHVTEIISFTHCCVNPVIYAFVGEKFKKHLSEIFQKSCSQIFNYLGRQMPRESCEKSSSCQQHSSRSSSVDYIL
Outline: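 Ten-point dilutions, top 10 μM final, were tested for displacing biotin-I309 from hCCR8-transfected L1.2 cells in HEPES-buffered HBSS with BSA and sodium azide, mixing 0.5 h before FMAT 8100 detection. Signals converted to percent inhibition against untreated wells and a 100 nM excess unlabeled I309 control.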

| SMILES | Ki |
| --- | --- |
| Cc1ccccc1C(=O)Nc1ccc(S(=O)(=O)NC2CCN(C(=O)C3CCCC3)CC2)c2ccccc12 [Compound C-38, N-[4-(1-Cyclopentanecarbonyl-piperidin-4-ylsulfamoyl)-naphthalen-1-yl]-2-methyl-benzamide] | < 500 nM |

same assay, conditions: L1.2/hCCR8 cells, biotinylated human I-309, 10 point concentration response starting at 10 μM; read-out: Ki of compounds to inhibit I-309 binding to CCR8

| SMILES | Ki |
| --- | --- |
| Cc1ccccc1C(=O)Nc1ccc(S(=O)(=O)N[C@@H]2CCN(C(=O)CN3CCOCC3)C[C@@H]2C)c2ccccc12 (racemic) [Compound C-145, (±)-2-Methyl-N-{4-[3-cis-methyl-1-(2-morpholin-4-yl-acetyl)-piperidin-4-ylsulfamoyl]-naphthalen-1-yl}-benzamide] | < 1000 nM |
| CCCC(=O)N1CCC(NS(=O)(=O)c2ccc(NC(=O)c3ccccc3C)c3c2CCCC3)CC1 [Compound E-1, N-[4-(1-Butyryl-piperidin-4-ylsulfamoyl)-5,6,7,8-tetrahydro-naphthalen-1-yl]-2-methyl-benzamide] | < 500 nM |
| CCCC(=O)N1C[C@@H](C)[C@@H](NS(=O)(=O)c2ccc(NC(=O)c3ccccc3C)c3ccccc23)[C@@H](C)C1 [Compound C-69, (±)-(cisscis)-N-[4-(1-Butyryl-3,5-dimethyl-piperidin-4-ylsulfamoyl)-naphthalen-1-yl]-2-methyl-benzamide] | < 1000 nM |
| COc1ccc(NS(=O)(=O)c2ccc(NC(=O)c3ccccc3)c3c2CCCC3)cc1 [Compound E-3, N-[4-(4-Methoxy-phenylsulfamoyl)-5,6,7,8-tetrahydro-naphthalen-1-yl]-benzamide] | < 500 nM |
| Cc1ccccc1C(=O)Nc1ccc(S(=O)(=O)N[C@H]2CCN(C(=O)C(C)N)C[C@H]2C)c2cccnc12 (stereo in doubt) [Compound J-39, (3R, 4S)-N-{5-[1-(2-(R)-Amino-propionyl)-3-methyl-piperidin-4-ylsulfamoyl]-quinolin-8-yl}-2-methyl-benzamide] | < 500 nM |
| CCOC(=O)N1CCC(NS(=O)(=O)c2ccc(N3C(=O)c4ccccc4C3=O)c3ccccc23)CC1 [Compound A-18, 4-[4-(1,3-Dioxo-1,3-dihydro-isoindol-2-yl)-naphthalene-1-sulfonylamino]-piperidine-1-carboxylic acid ethyl ester] | < 500 nM |
| CCOC(=O)N1CCC(NS(=O)(=O)c2ccc(NC(=O)C3CCCCC3)c3c2CCCC3)CC1 [Compound E-6, 4-(4-(Cyclohexanecarbonyl-amino)-5,6,7,8-tetrahydro-naphthalene-1-sulfonylamino)-piperidine-1-carboxylic acid ethyl ester] | < 500 nM |
| O=C(NCc1ccc(S(=O)(=O)NC2CCCCC2)c2ccccc12)c1ccco1 [Compound G-6, Furan-2-carboxylic acid (4-cyclohexylsulfamoyl-naphthalen-1-ylmethyl)-amide] | < 1000 nM |
| Cc1ccccc1C(=O)Nc1ccc(S(=O)(=O)NC2CCCNC2)c2c1CCCC2 (racemic) [Compound E-28, (±)-2-Methyl-N-[4-(piperidin-3-ylsulfamoyl)-5,6,7,8-tetrahydro-naphthalen-1-yl]-benzamide] | < 500 nM |
| CCCC(=O)N1CCC(NS(=O)(=O)c2ccc(NC(=O)c3ccccc3C)c3ccccc23)C(C)(C)C1 (racemic) [Compound C-23, (±)-N-[4-(1-Butyryl-3,3-dimethyl-piperidin-4-ylsulfamoyl)-naphthalen-1-yl]-2-methyl-benzamide] | < 30000 nM |
| CN1CCCC(C(=O)Nc2ccc(S(=O)(=O)NC3CCN(C(=O)OC(C)(C)C)CC3)c3ccccc23)C1 (centres unmarked) [Compound B-23] | < 30000 nM |
| COc1ccc(NS(=O)(=O)c2cccc3c(NC(=O)c4ccccc4)cccc23)cc1 [Compound H-1, N-[5-(4-Methoxy-phenylsulfamoyl)-naphthalen-1-yl]-benzamide] | < 500 nM |
| CCOC(=O)N1CCC(NS(=O)(=O)c2ccc(CNCc3ccncc3)c3ccccc23)CC1 [Compound G-15, 4-(4-{[(Pyridin-4-ylmethyl)-ainno]-methyl}-naphthalene-1-sulfonylamino)-piperidine-1-carboxylic acid ethyl ester] | < 1000 nM |
